Assay results taken from publication PMC11520566, “Discovery of pyrazole-based analogs as CDK2 inhibitors with apoptotic-inducing activity: design, synthesis and molecular dynamics study” (RSC Advances, 2024).

Assays:
SK-MEL-2 = assay: NCI 60 five dose assay, Melanoma; type: cell-based, human
COLO 205 = assay: NCI 60 five dose assay, Colon cancer; type: cell-based, human
MALME-3M = assay: NCI 60 five dose assay, Melanoma; type: cell-based, human; settings: for Percent Growth: MALME-3M
RXF 393 = assay: NCI 60 five dose assay, Renal cancer; type: cell-based, human
NCI 60 cancer cell lines = assay: NCI 60 single dose screen, mean over full panel; type: cell-based, human; settings: mean over NCI 60 cell lines; single dose 10 μM
Experimental: (§1) The newly synthesized pyrazoles 2a–g, 7a–d, 8a and b, 9, and 10 were submitted to the National Cancer Institute (NCI) Developmental Therapeutics Program (http://www.dtp.nci.nih.gov) for assessment of their potential antiproliferative activity against a panel of NCI 60 cancer cell lines. All compounds were approved for screening against the approved 60 cancer cell lines at a single dose of 10 μM. The human cancer cell lines were derived from 9 variant cancer types including leukemia, melanoma, lung, colon, CNS, ovarian, renal, prostate and breast cancers. The results are presented as percentage of growth inhibition (GI%) of the screened compounds against the full panel of cell lines.
(§2) Under sterile conditions, the cell lines were grown in RPMI 1640 media (Gibco, NY, USA) supplemented with 10% fetal bovine serum (Biocell, CA, USA), and […] cell/mL was used to test the growth inhibition activity of the synthesized compounds. The compounds with concentrations ranging from 0.01 to 100 μM were prepared in phosphate buffer saline. Each compound was initially solubilized in dimethyl sulfoxide (DMSO); however, each final dilution contained less than 1% DMSO. Solutions of different concentrations (0.2 mL) were pipetted into the separate well of a microtiter tray in duplicate. Cell culture (1.8 mL) containing a cell population of […] cells per mL was pipetted into each well. Controls, containing only phosphate buffer saline and DMSO at identical dilutions, were also prepared in the same manner. These cultures were incubated in a humidified incubator at 37 °C. The incubator was supplied with 5% CO2 atmosphere. After 48 h, the cells in each well were diluted 10 times with saline and counted using a Coulter counter. The counts were corrected for the dilution.[34]

DU-145 = assay: NCI 60 five dose assay, Prostate cancer; type: cell-based, human
CCRF-CEM = assay: NCI 60 single dose screen, Leukemia; type: cell-based, human; settings: single dose 10 μM
Experimental: as §1, §2

RPMI-8226 = assay: NCI 60 single dose screen, Leukemia; type: cell-based, human; settings: single dose 10 μM
Experimental: as §1, §2

HCT-116 = assay: NCI 60 five dose assay, Colon cancer; type: cell-based, human
SK-OV-3 = assay: NCI 60 five dose assay, Ovarian cancer; type: cell-based, human
A498 = assay: NCI 60 five dose assay, Renal cancer; type: cell-based, human
SF-268 = assay: NCI 60 five dose assay, CNS cancer; type: cell-based, human
NCI-H460 = assay: NCI 60 single dose screen, Non-small cell lung cancer; type: cell-based, human; settings: single dose 10 μM
Experimental: as §1, §2

NCI-H322M = assay: as above; type: cell-based, human; settings: single dose 10 μM
Experimental: as §1, §2

UACC-257 = assay: NCI 60 single dose screen, Melanoma; type: cell-based, human; settings: single dose 10 μM
Experimental: as §1, §2

NCI-H226 = assay: NCI 60 five dose assay, Non-small cell lung cancer; type: cell-based, human
SNB-19 = assay: NCI 60 five dose assay, CNS cancer; type: cell-based, human
A549/ATCC = assay: NCI 60 five dose assay, Non-small cell lung cancer; type: cell-based, human
in vitro = settings: human
EKVX = assay: NCI 60 five dose assay, Non-small cell lung cancer; type: cell-based, human
[1] = Homo sapiens, read-out: LC50 (the source's name)

In the case of `CC(=NNc1ccc(S(N)(=O)=O)cc1)c1ccc(NN=C2C(=O)NN=C2Nc2ccccc2)cc1` [Compound 4, 4-(2-(1-(4-(2-(5-oxo-3-(phenylamino)-1,5-dihydro-4H-pyrazol-4-ylidene)hydrazinyl)phenyl)ethylidene)hydrazinyl)benzene sulfonamide], the GI50 (SK-MEL-2; Homo sapiens) is reported as 2.11 µM, the CC50 (SK-MEL-2; [1]) is reported as 9.1 µM and the “Percent Growth” value (SK-MEL-2; Log10 Concentration -4.0 Molar) is reported as -96%. For the same compound, the “Percent Growth” value (SK-MEL-2; Log10 Concentration -5.0 Molar) was -56%, the “Percent Growth” value (SK-MEL-2; Log10 Concentration -6.0 Molar) was 101% and the “Percent Growth” value (SK-MEL-2; Log10 Concentration -7.0 Molar) was 104%. The “Percent Growth” value (SK-MEL-2; Log10 Concentration -8.0 Molar) was 98%, the GI50 (COLO 205; Homo sapiens) was 3.28 µM and the CC50 (COLO 205; [1]) was 34.6 µM. For the same compound, the “Percent Growth” value (COLO 205; Log10 Concentration -4.0 Molar) was -100%, the “Percent Growth” value (COLO 205; Log10 Concentration -5.0 Molar) was 9% and the “Percent Growth” value (COLO 205; Log10 Concentration -6.0 Molar) was 94%. For the same compound, the “Percent Growth” value (COLO 205; Log10 Concentration -7.0 Molar) was 105%, the “Percent Growth” value (COLO 205; Log10 Concentration -8.0 Molar) was 101% and the GI50 (MALME-3M; Homo sapiens, Malme-3M) was 1.98 µM. The CC50 (MALME-3M; Homo sapiens, Malme-3M, read-out: LC50 (the source's name)) was 7.49 µM, the “Percent Growth” value (MALME-3M; Log10 Concentration -4.0 Molar) was -100% and the “Percent Growth” value (MALME-3M; Log10 Concentration -5.0 Molar) was -72%. The “Percent Growth” value (MALME-3M; Log10 Concentration -6.0 Molar) was 102%, the “Percent Growth” value (MALME-3M; Log10 Concentration -7.0 Molar) was 97% and the “Percent Growth” value (MALME-3M; Log10 Concentration -8.0 Molar) was 89%. For the same compound, the GI50 (RXF 393; Homo sapiens) was 1.1 µM, the CC50 (RXF 393; [1]) was 21.1 µM and the “Percent Growth” value (RXF 393; Log10 Concentration -4.0 Molar) was -76%. For the same compound, the “Percent Growth” value (RXF 393; Log10 Concentration -5.0 Molar) was -37%, the “Percent Growth” value (RXF 393; Log10 Concentration -6.0 Molar) was 54% and the “Percent Growth” value (RXF 393; Log10 Concentration -7.0 Molar) was 99%. The “Percent Growth” value (RXF 393; Log10 Concentration -8.0 Molar) was 103%, the “mean GI%” value (NCI 60 cancer cell lines) was 96.47% and the GI50 (DU-145; Homo sapiens) was 3.21 µM. For the same compound, the CC50 (DU-145; [1]) was 32.2 µM, the “Percent Growth” value (DU-145; Log10 Concentration -4.0 Molar) was -100% and the “Percent Growth” value (DU-145; Log10 Concentration -5.0 Molar) was 2%. For the same compound, the “Percent Growth” value (DU-145; Log10 Concentration -6.0 Molar) was 99%, the “Percent Growth” value (DU-145; Log10 Concentration -7.0 Molar) was 106% and the “Percent Growth” value (DU-145; Log10 Concentration -8.0 Molar) was 100%. For the same compound, the GI% (CCRF-CEM) was 96.41%, the GI% (RPMI-8226) was 96.53% and the GI50 (HCT-116; Homo sapiens) was 3.04 µM. For the same compound, the CC50 (HCT-116; [1]) was 32 µM, the “Percent Growth” value (HCT-116; Log10 Concentration -4.0 Molar) was -100% and the “Percent Growth” value (HCT-116; Log10 Concentration -5.0 Molar) was 1%. For the same compound, the “Percent Growth” value (HCT-116; Log10 Concentration -6.0 Molar) was 96%, the “Percent Growth” value (HCT-116; Log10 Concentration -7.0 Molar) was 104% and the “Percent Growth” value (HCT-116; Log10 Concentration -8.0 Molar) was 98%. The GI50 (SK-OV-3; Homo sapiens) was 2.34 µM, the CC50 (SK-OV-3; [1]) was 23.7 µM and the “Percent Growth” value (SK-OV-3; Log10 Concentration -4.0 Molar) was -98%. For the same compound, the “Percent Growth” value (SK-OV-3; Log10 Concentration -5.0 Molar) was -21%, the “Percent Growth” value (SK-OV-3; Log10 Concentration -6.0 Molar) was 92% and the “Percent Growth” value (SK-OV-3; Log10 Concentration -7.0 Molar) was 102%. The “Percent Growth” value (SK-OV-3; Log10 Concentration -8.0 Molar) was 89%, the GI50 (A498; Homo sapiens) was 11.4 µM and the CC50 (A498; [1]) was 94.7 µM. For the same compound, the “Percent Growth” value (A498; Log10 Concentration -4.0 Molar) was -53%, the “Percent Growth” value (A498; Log10 Concentration -5.0 Molar) was 56% and the “Percent Growth” value (A498; Log10 Concentration -6.0 Molar) was 87%. The “Percent Growth” value (A498; Log10 Concentration -7.0 Molar) was 87%, the “Percent Growth” value (A498; Log10 Concentration -8.0 Molar) was 77% and the GI50 (SF-268; Homo sapiens) was 2.22 µM. The CC50 (SF-268; [1]) was 31.5 µM, the “Percent Growth” value (SF-268; Log10 Concentration -4.0 Molar) was -77% and the “Percent Growth” value (SF-268; Log10 Concentration -5.0 Molar) was -23%. The “Percent Growth” value (SF-268; Log10 Concentration -6.0 Molar) was 89%, the “Percent Growth” value (SF-268; Log10 Concentration -7.0 Molar) was 95% and the “Percent Growth” value (SF-268; Log10 Concentration -8.0 Molar) was 85%. For the same compound, the GI% (NCI-H460) was 91.13%, the GI% (NCI-H322M) was 90.78% and the GI% (UACC-257) was 94.37%. For the same compound, the GI50 (NCI-H226; Homo sapiens) was 3.31 µM, the CC50 (NCI-H226; [1]) was 35.1 µM and the “Percent Growth” value (NCI-H226; Log10 Concentration -4.0 Molar) was -100%. The “Percent Growth” value (NCI-H226; Log10 Concentration -5.0 Molar) was 10%, the “Percent Growth” value (NCI-H226; Log10 Concentration -6.0 Molar) was 93% and the “Percent Growth” value (NCI-H226; Log10 Concentration -7.0 Molar) was 102%. For the same compound, the “Percent Growth” value (NCI-H226; Log10 Concentration -8.0 Molar) was 96%, the GI50 (SNB-19; Homo sapiens) was 2.59 µM and the CC50 (SNB-19; [1]) was 29.6 µM. The “Percent Growth” value (SNB-19; Log10 Concentration -4.0 Molar) was -100%, the “Percent Growth” value (SNB-19; Log10 Concentration -5.0 Molar) was -5% and the “Percent Growth” value (SNB-19; Log10 Concentration -6.0 Molar) was 89%. For the same compound, the “Percent Growth” value (SNB-19; Log10 Concentration -7.0 Molar) was 94%, the “Percent Growth” value (SNB-19; Log10 Concentration -8.0 Molar) was 91% and the GI50 (A549/ATCC; Homo sapiens) was 19.4 µM. For the same compound, the CC50 (A549/ATCC; [1]) was > 100 µM, the “Percent Growth” value (A549/ATCC; Log10 Concentration -4.0 Molar) was 7% and the “Percent Growth” value (A549/ATCC; Log10 Concentration -5.0 Molar) was 67%. The “Percent Growth” value (A549/ATCC; Log10 Concentration -6.0 Molar) was 100%, the “Percent Growth” value (A549/ATCC; Log10 Concentration -7.0 Molar) was 108% and the “Percent Growth” value (A549/ATCC; Log10 Concentration -8.0 Molar) was 100%. For the same compound, the IC50 (in vitro) was 41.2 µM, the GI50 (EKVX; Homo sapiens) was 5.39 µM and the CC50 (EKVX; [1]) was > 100 µM. For the same compound, the “Percent Growth” value (EKVX; Log10 Concentration -4.0 Molar) was -48%, the “Percent Growth” value (EKVX; Log10 Concentration -5.0 Molar) was 36% and the “Percent Growth” value (EKVX; Log10 Concentration -6.0 Molar) was 89%. The “Percent Growth” value (EKVX; Log10 Concentration -7.0 Molar) was 102% and the “Percent Growth” value (EKVX; Log10 Concentration -8.0 Molar) was 98%.
